Measured values from US6333340A, “Small molecule sulfonamides for vision and memory disorders” (Gpi Nil Holdings, Inc., priority 1998, dated 2001).
Several values for one entry are separate records, joined by “and”; a condition that tells them apart may be missing. Equal values may be shown once.

What was measured:
[1] = system: retinal ganglion cell axons; test: Protection of retinal ganglion cell axons from degeneration following optic nerve transection, RT 97 axon density (Table V); format: in vivo
From the text: Efficacy of representative compounds from different immunophilin ligand series in protecting retinal ganglion cell axons from degeneration following optic nerve transection is set forth in Table V.

retinal ganglion cells [2] = test: Optic nerve transection, retinal ganglion cell survival (Fluoro-gold counts); format: in vivo, Sprague Dawley rats; conditions: for RGC Counts: mean density + SEM in 400 μm sample gridfields
From the text: (§1) All eyes and optic nerves stumps were removed.
^1 Mean density + SEM of Fluoro-gold labeled retinal ganglion cells
(RGC) in 400 μm […] sample gridfields.

optic nerve myelin = test: Optic nerve transection, myelin basic protein immunohistochemistry of optic nerve stumps; format: in vivo, Sprague Dawley rats; conditions: for Proximal optic nerve myelin basic protein Density, % recovery: SEM
From the text: as §1
^5 determined from 20X analysis of % areal coverage of optic nerve
^6 shrinkage determined by comparing cross sectional area to sham
control, myelin, leves determined by multiplying cross sectional area by […]

[3] = system: optic nerve axons and myelin; test: Retinal ischemia, degeneration of optic nerve axons and myelin (toluidine blue); format: in vivo, rat
retina = test: Streptozotocin induced diabetes, retinal neovascularization and neuron loss (cresyl violet); format: in vivo
retinal ganglion cells [4] = test: Optic nerve transection, ganglion cell survival and axonal dying back (Example 16); format: in vivo, Sprague Dawley rats; conditions: 10 mg/kg/day s.c. for 28 days; 90 days after transection
From the text: Transection of the mammalian optic nerve results in a brief period of abortive regeneration, but the majority of axotomized neurons die and the axons from many persisting ganglion cells die back beyond the optic nerve head.

[5] = system: streptozotocin-induced diabetic rat; test: Streptozotocin-induced diabetic sensory neuropathy, hot plate and tail flick tests; format: in vivo, Male Wistar rats; conditions: 10 mg/kg s.c., 6 weeks
Procedure: The procedure involved using Male Wistar rats which were given a single injection of streptozotocin (65 mg/kg i.v.). Blood glucose levels were determined weekly for the first three weeks and on the last week of the experiment. Animals were evaluated weekly for signs of sensory neuropathy using the conventional hot plate and tail flick apparatus test procedures.

aged mice = test: Morris watermaze, spatial learning and memory in aged mice; format: in vivo, male C57BL/6N-Nia mice; conditions: 10mg/kg daily
From the text: The Morris watermaze is widely used for assessing spatial memory formation and retention in experimental animals. The test depends on the animal's ability to utilize spatial visual information in order to locate a submerged escape platform in a water tank. It is important that the tank itself be as devoid of specific visual features as possible--thus, it is always circular in shape, the sides are kept smooth and in uniform dull colors, and the water is rendered opaque with nontoxic watercolor pigment or powdered milk. This is to ensure that the animal navigates only by the use of more distant visual cues, or by the use of intra-maze cues specifically provided by the experimenter. The tank is filled to a level which forces the animal to swim actively. Normal mice and rats react […] to the swimming part of the test and will climb onto, and remain on, an escape platform from which they are removed to a heated resting cage. If the platform is visible (i.e. above the surface), animals placed in the tank will quickly learn to home in on the platform and climb out onto it. Testing with a visible platform will also ensure that the experimental animals are not blind and show sufficient motivation and stamina to perform the task, which can be important in experiments involving aged rodents. If the platform is invisible (i.e. submerged just below the surface), normal animals learn to use distant visual cues in the test room for orientation in the test tank, and, when placed in the tank, will quickly home in on the approximate location of the platform and circle in that area until the platform is found. The animals' path, speed, and swim time are tracked with a ceiling camera for later computerized analysis. Over the course of several successive trials, spatial learning can therefore be defined as a drop of distance swum, or time elapsed, from placement in the tank until escape onto the invisible platform. The test can be adapted to assess several aspects of spatial memory: a) acquisition of a cued task, where the animal's ability to link one visual cue directly with the escape platform depends on cortical function (i.e. a ball is suspended over the escape platform and the animal learns to follow this cue to find the platform); b) acquisition of a spatial task, where the animal's ability to learn the location of a submerged escape platform based on a combination of distant visual cues is dependent upon hippocampal function (i.e. the animal learns to triangulate its position in the tank by visually aligning the paper-tower dispenser with the door and ceiling lamp); c) retention of a successfully acquired spatial task, which is predominantly dependant on cortical function (i.e. the animal must remember the spatial location of the platform over several weeks); d) a hippocampus-dependant reversal task where the animals must reacquire a new spatial platform location (i.e. the platform is moved to a new location between swim trials and the animal must abandon its previous search strategy and acquire a new one). These different modifications of the Morris watermaze procedure can be applied in sequence to the same set of experimental animals and allow for a thorough characterization of their spatial memory performance and its decline with normal ageing. […]

neurite outgrowth = test: Neurite outgrowth in culture; format: cell-based
CNS = test: Sprouting within the CNS following partial deafferentation; format: in vivo
[6] = 14 days treatment, 90 days after ONT
[7] = 28 days treatment, 90 days after ONT
[8] = distal stump, first 28 days after transection
[9] = proximal stump, first 28 days after transection
[10] = 28 days after 1 hour retinal ischemic episode
[11] = 28 day treatment beginning 8 weeks after onset of diabetes
[12] = retention after 3 weeks of dosing

In the case of `CCC(C)(C)C(=O)C(=O)N1CCC[C@H]1C(=O)OCCCc1cccnc1` [GPI 1046], the “RT 97 RCC axon density 11 days after ON transection (36 ON axon rescued)” value [1] is reported as 60.5%, the “% RGCs Rescued” value (retinal ganglion cells [2]; [6]) is reported as 5.3% and the “Spared RGC population” value (retinal ganglion cells [2]; [6]) is reported as 20,275. For the same molecule, the “RGC Counts” value (retinal ganglion cells [2]; [6]) was 49 ± 5.3, the “density of retinal ganglion cells that survived” value (retinal ganglion cells [2]; 14 days treatment, 90 days after transection, in words) was “small but not significant increase” and the “% RGCs Rescued (protection of the vulnerable ganglion cell population)” value (retinal ganglion cells [2]; [7]) was 12.6%. The “Spared RGC population” value (retinal ganglion cells [2]; [7]) was 28,096, the “RGC Counts” value (retinal ganglion cells [2]; [7]) was 67.9 ± 5.8 and the “effect on retinal ganglion cells following Optic Nerve Transection” value (retinal ganglion cells [2]; FIG. 10) was “neuroprotective effect”. For the same molecule, the “protection of the vulnerable ganglion cell population, in words” value (retinal ganglion cells [2]; first 28 days after transection) was “moderate but significant protection”, the “Distal optic nerve myelin basic protein Density, loss” value (optic nerve myelin; [6]) was 47% and the “Proximal optic nerve myelin basic protein Density, % recovery” value (optic nerve myelin; [6]) was 1.6% and 1.6 ± 3.0%. The “Distal optic nerve, shrinkage” value (optic nerve myelin; 14 days treatment, 90 days after ONT, cross sectional area vs sham control) was 33%, the “Distal optic nerve myelin preservation (myelin levels of normal)” value (optic nerve myelin; [7]) was ~ 99% and 99% and the “Distal optic nerve, less shrinkage” value (optic nerve myelin; [7]) was 56%. The “Proximal optic nerve myelin basic protein Density, % recovery” value (optic nerve myelin; [7]) was 70% and 70 ± 6.3%, the “density of degenerating myelin figures” value (optic nerve myelin; distal stump, first 14 days after transection) was “remained high” and the density of myelin (optic nerve myelin; distal stump, first 14 days after transection, in words) was “slightly increase the density of myelin”. The “density of degenerating myelin figures” value (optic nerve myelin; [8]) was “decreased the density of degenerating myelin figures”, the “fascicular pattern of myelin labeling” value (optic nerve myelin; [8]) was “dramatic protection of the fascicular pattern of myelin labeling” and the “shrinkage of the distal stump” value (optic nerve myelin; first 14 days after transection, in words) was “did not protect against shrinkage of the distal stump”. For the same molecule, the “cross sectional shrinkage of the distal stump” value (optic nerve myelin; first 28 days after transection, in words) was “prevented cross sectional shrinkage of the distal stump”, the “pattern of myelin degeneration” value (optic nerve myelin; proximal stump, first 14 days after transection) was “did not alter the pattern of myelin degeneration” and the “density of degenerating myelin figures” value (optic nerve myelin; [9]) was “decreased the density of degenerating myelin figures”. For the same molecule, the “fascicular staining pattern for myelin basic protein” value (optic nerve myelin; [9]) was “dramatic preservation of the fascicular staining pattern for myelin basic protein”, the “density of degenerating myelin figures” value [3, 10] was “dramatically decreased the density of degenerating myelin figures” and the “protection of optic nerve axons from degeneration” value [3, 10] was “protected the majority of optic nerve axons from degeneration”. For the same molecule, the “protection of optic nerve element from ischemic degeneration” value ([3]; retinal ischemia) was “dramatic protection of optic nerve element from ischemic degeneration”, the “neovascularization in the PR, ONL, OPL and INL” value (retina; [11]) was “reduced neovascularization” and the “protection against neuronal loss in the ONL” value (retina; [11]) was “did not appear to protect against neuronal loss in the ONL”. The “loss of neurons in INL and GCL” value (retina; 28 day treatment, compared to streptozotocin/vehicle) was “appeared to decrease the loss of neurons in both the INL and GCL”, the perikaryal neuroprotection (retinal ganglion cells [4]) was “moderate degree of perikaryal neuroprotection” and the “preservation of axons of protected neurons in the proximal stump” value (retinal ganglion cells [4]) was “preserved the axons of virtually all protected neurons”. For the same molecule, the “sparing of the ganglion cell population” value (retinal ganglion cells [4]) was 25%, the “behavioral sequelae of diabetic sensory neuropathy” value [5] was “ameliorates the behavioral sequelae of diabetic sensory neuropathy” and the “latency, hot plate” value [5] was “improvement in latency”. For the same molecule, the “latency, tail flick” value [5] was “improvement in latency”, the “spatial memory performance of mice with age-related spatial memory impairments” value (aged mice; systemic) was “significantly enhanced spatial memory performance” and the “P, retention phase, young vs aged impaired GPI-1046” value (aged mice; F1.69 =3.09) was 0.08. The “P, retention testing, aged impaired-vehicle vs aged impaired GPI-1046” value (aged mice; F1.69 =8.11) was 0.006, the “retention phase, difference between young and aged impaired GPI-1046 groups” value (aged mice; [12]) was “no longer any statistically significant difference” and the “retention testing, aged impaired-vehicle compared with aged impaired GPI-1046” value (aged mice; [12]) was “"aged impaired-vehicle" treated animals performed significantly poorer than "aged impaired - GPI-1046"”. The “neurite outgrowth in culture” value (neurite outgrowth) was “enhances neurite outgrowth in culture” and the “sprouting within the CNS” value (CNS) was “stimulate sprouting within the CNS following partial deafferentation”.
